Results taken from the supplement of paper PMC11061612.

Assays:
Experiment in all cases: combination Emax (second highest fraction inhibited in the dose matrix, 72 h); higher = more inhibition; extreme values may be limits of the assay
[1] = system: CFPAC-1 (Pancreatic Carcinoma)
Summary of the method: (§1)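 Bliss excess equals the observed combination effect minus the expected value EA + EB − EA·EB, where EA and EB are the effects of each agent alone. Combination Emax is the second-highest inhibition within the matrix. Inhibition was scaled from CellTiter-Glo 2.0 luminescence, with 0 set by vehicle wells and 1 by blank wells, after 72 hours of two-drug dosing of cells plated in 1536-well plates.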

[2] = system: COR-L23 (Non-Small Cell Lung Carcinoma)
Summary of the method: as §1

[3] = system: COR-L95 (Small Cell Lung Carcinoma)
Summary of the method: as §1

[4] = system: HPAC (Pancreatic Carcinoma)
Summary of the method: as §1

[5] = system: HT-29 (Colorectal Carcinoma)
Summary of the method: as §1

[6] = system: IHH-4 (Thyroid Gland Carcinoma)
Summary of the method: as §1

[7] = system: KM-H2 (Hodgkin's Lymphoma)
Summary of the method: as §1

[8] = system: MDA-MB-157 (Breast Carcinoma)
Summary of the method: as §1

[9] = system: NCI-H1694 (Small Cell Lung Carcinoma)
Summary of the method: as §1

[10] = system: NCI-H1781 (Lung Adenocarcinoma)
Summary of the method: as §1

NCI-H2369 (Mesothelioma) = system: NCI-H2369 (Mesothelioma)
Summary of the method: as §1

[11] = system: OCI-AML2 (Acute Myeloid Leukemia)
Summary of the method: as §1

RH-1 (Ewing's Sarcoma) = system: RH-1 (Ewing's Sarcoma)
Summary of the method: as §1

[12] = system: SNU-C5 (Colorectal Carcinoma)
Summary of the method: as §1

[13] = system: SW1783 (Low Grade Glioma)
Summary of the method: as §1

[14] = system: SW1990 (Pancreatic Carcinoma)
Summary of the method: as §1

[15] = system: SW756 (Cervical Carcinoma)
Summary of the method: as §1

[16] = system: SW780 (Bladder Carcinoma)
Summary of the method: as §1

[17] = system: TGBC24TKB (Biliary Tract Carcinoma)
Summary of the method: as §1

[18] = system: U-266 (Plasma Cell Myeloma)
Summary of the method: as §1

| Structure (SMILES) | combination Emax [7] | combination Emax [1] | combination Emax [2] | combination Emax [3] | combination Emax [4] | combination Emax [5] | combination Emax [6] | combination Emax [8] | combination Emax [9] | combination Emax [10] | combination Emax (NCI-H2369 (Mesothelioma)) | combination Emax [11] | combination Emax (RH-1 (Ewing's Sarcoma)) | combination Emax [12] | combination Emax [13] | combination Emax [14] | combination Emax [15] | combination Emax [16] | combination Emax [17] | combination Emax [18] |
| --- | --- | --- | --- | --- | --- | --- | --- | --- | --- | --- | --- | --- | --- | --- | --- | --- | --- | --- | --- | --- |
| C=CCn1c(=O)c2cnc(Nc3ccc(N4CCN(C)CC4)cc3)nc2n1-c1cccc(C(C)(C)O)n1 [AZD1775] + O=C(c1cc(Cc2n[nH]c(=O)c3ccccc23)ccc1F)N1CCN(C(=O)C2CC2)CC1 [Olaparib] (first compound max 1 µM, partner max 10 µM) | 0.961 | 0.476 | 0.224 | 0.639 | 0.649 | 0.818 | 0.695 | 0.723 | 0.404 | 0.538 | 0.258 | 0.992 | 1 | 0.567 | 0.342 | 0.404 | 0.35 | 0.209 | 0.687 | 0.763 |
| Cn1cnc2c(F)c(Nc3ccc(Br)cc3Cl)c(C(=O)NOCCO)cc21 [Selumetinib] + C[C@@H]1COCCN1C2=NC(=NC(=C2)C3(CC3)[S@](=N)(=O)C)C4=C5C=CNC5=NC=C4 [AZD6738] (first compound max 10 µM, 7x7, partner max 10 µM) | 0.751 | 0.667 | 0.615 | 0.535 | 0.735 | 0.862 | 0.646 | 0.92 | 0.728 | 0.396 | 0.187 | 1 | 0.899 | 0.789 | 0.362 | 0.502 | 0.287 | 0.381 | 0.703 | 0.717 |
| Cc1c2c(nn1C)CSCc1cc(n(C)n1)CSc1cc(c3ccccc3c1)OCCCc1c(C(=O)O)n(C)c3c-2c(Cl)ccc13 [AZD5991] + C[C@@H](Nc1cc(F)cc(F)c1)c1cc(C(=O)N(C)C)cc2c(=O)cc(N3CCOCC3)oc12 [AZD8186] (first compound max 1 µM, 7x7, partner max 3 µM) | 0.11 | 0.294 | 0.104 | 0.346 | 0.378 | 0.24 | 0.234 | 0.876 | 0.953 | 0.584 | 0.24 | 0.946 | 0.827 | 0.254 | 0.4 | 0.21 | 0.217 | 0.228 | 0.249 | 0.894 |

The next lines start with results.

| combination Emax [7] | Structure (SMILES) | combination Emax [1] | combination Emax [2] | combination Emax [3] | combination Emax [4] | combination Emax [5] | combination Emax [6] | combination Emax [8] | combination Emax [9] | combination Emax [10] | combination Emax (NCI-H2369 (Mesothelioma)) | combination Emax [11] | combination Emax (RH-1 (Ewing's Sarcoma)) | combination Emax [12] | combination Emax [13] | combination Emax [14] | combination Emax [15] | combination Emax [16] | combination Emax [17] | combination Emax [18] |
| --- | --- | --- | --- | --- | --- | --- | --- | --- | --- | --- | --- | --- | --- | --- | --- | --- | --- | --- | --- | --- |
| 0.0543 | CN(CCO)CC[C@H](CSc1ccccc1)Nc1ccc(S(=O)(=O)NC(=O)c2ccc(N3CCC([C@@H](O)c4ccccc4-c4ccc(Cl)cc4)CC3)cc2)cc1S(=O)(=O)C(F)(F)F [AZD4320] + C1CN(CCC1(C(=O)N[C@@H](CCO)C2=CC=C(C=C2)Cl)N)C3=NC=NC4=C3C=CN4 [Capivasertib] (first compound max 1 µM, 7x7, partner max 3 µM) | 0.0708 | 0.258 | 1 | 0.137 | 0.196 | 0.171 | 0.0801 | 0.763 | 0.341 | 0.859 | 1 | 0.394 | 0.3 | 0.44 | 0.0829 | 0.143 | 0.578 | 0.687 | 0.577 |
| 0.296 | CN(CCO)CC[C@H](CSc1ccccc1)Nc1ccc(S(=O)(=O)NC(=O)c2ccc(N3CCC([C@@H](O)c4ccccc4-c4ccc(Cl)cc4)CC3)cc2)cc1S(=O)(=O)C(F)(F)F [AZD4320] + Cn1cnc2c(F)c(Nc3ccc(Br)cc3Cl)c(C(=O)NOCCO)cc21 [Selumetinib] (first compound max 1 µM, 7x7, partner max 3 µM) | 0.472 | 0.442 | 1 | 0.865 | 0.695 | 0.58 | 0.366 | 0.957 | 0.568 | 0.435 | 1 | 0.854 | 0.656 | 0.706 | 0.557 | 0.47 | 0.78 | 0.791 | 0.938 |
| 0.222 | NC1(C(=O)N[C@@H](CCO)c2ccc(Cl)cc2)CCN(c2ncnc3[nH]ccc23)CC1 [Capivasertib] + CC(C)n1c(=O)n(C)c2cnc3cc(F)c(-c4ccc(OCCCN5CCCCC5)nc4)cc3c21 [AZD1390] (first compound max 10 µM, 7x7, partner max 0.3 µM) | 0.235 | 0.37 | 0.164 | 0.252 | 0.345 | 0.203 | 0.25 | 0.223 | 0.485 | 0.222 | 0.586 | 0.333 | 0.416 | 0.454 | 0.143 | 0.31 | 0.176 | 0.25 | 0.139 |
